Source: PubChem BioAssay (NCI)
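How tested: cells in 96-well plates exposed to compound for 48 hours at five concentrations. The concentration for full growth arrest is given as TGI.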

Assays:
Assay in all cases: growth of human tumour cells (NCI), 48 h
786-0 renal = test system: 786-0 renal
A498 renal = test system: A498 renal
A549 NSCLC = test system: A549 NSCLC
ACHN renal = test system: ACHN renal
BT-549 breast = test system: BT-549 breast
CAKI-1 renal = test system: CAKI-1 renal
CCRF-CEM leukemia = test system: CCRF-CEM leukemia
COLO 205 colon = test system: COLO 205 colon
DU-145 prostate = test system: DU-145 prostate
EKVX NSCLC = test system: EKVX NSCLC
HCC-2998 colon = test system: HCC-2998 colon
HCT-116 colon = test system: HCT-116 colon
HCT-15 colon = test system: HCT-15 colon
HL-60(TB) leukemia = test system: HL-60(TB) leukemia
HOP-62 NSCLC = test system: HOP-62 NSCLC
HOP-92 NSCLC = test system: HOP-92 NSCLC
HS 578T breast = test system: HS 578T breast
HT29 colon = test system: HT29 colon
IGROV1 ovarian = test system: IGROV1 ovarian
K-562 leukemia = test system: K-562 leukemia
KM12 colon = test system: KM12 colon
LOX IMVI melanoma = test system: LOX IMVI melanoma
M14 melanoma = test system: M14 melanoma
MALME-3M melanoma = test system: MALME-3M melanoma
MCF7 breast = test system: MCF7 breast
MDA-MB-231 breast = test system: MDA-MB-231 breast
MDA-MB-435 = test system: MDA-MB-435
MOLT-4 leukemia = test system: MOLT-4 leukemia
NCI-H226 lung = test system: NCI-H226 lung
NCI-H23 lung = test system: NCI-H23 lung
NCI-H460 lung = test system: NCI-H460 lung
NCI-H522 lung = test system: NCI-H522 lung
NCI/ADR-RES ovarian = test system: NCI/ADR-RES ovarian
OVCAR-3 ovarian = test system: OVCAR-3 ovarian
OVCAR-4 ovarian = test system: OVCAR-4 ovarian
OVCAR-5 ovarian = test system: OVCAR-5 ovarian
OVCAR-8 ovarian = test system: OVCAR-8 ovarian
PC-3 prostate = test system: PC-3 prostate
RPMI-8226 leukemia = test system: RPMI-8226 leukemia
RXF 393 renal = test system: RXF 393 renal
SF-268 CNS = test system: SF-268 CNS
SF-295 CNS = test system: SF-295 CNS
SF-539 CNS = test system: SF-539 CNS
SK-MEL-2 melanoma = test system: SK-MEL-2 melanoma
SK-MEL-28 melanoma = test system: SK-MEL-28 melanoma
SK-MEL-5 melanoma = test system: SK-MEL-5 melanoma
SK-OV-3 ovarian = test system: SK-OV-3 ovarian
SN12C renal = test system: SN12C renal
SNB-19 CNS = test system: SNB-19 CNS
SNB-75 CNS = test system: SNB-75 CNS
SR leukemia = test system: SR leukemia
SW-620 colon = test system: SW-620 colon
T-47D breast = test system: T-47D breast
TK-10 renal = test system: TK-10 renal
U251 CNS = test system: U251 CNS
UACC-257 melanoma = test system: UACC-257 melanoma
UACC-62 melanoma = test system: UACC-62 melanoma
UO-31 renal = test system: UO-31 renal

Compound: CC(=O)OC(C)(C)C1O[C@@]23OC1C[C@@H](C)[C@@H]2[C@@]1(C)CC[C@@]24C[C@@]25CC[C@H](OC2OCC(O)C(O)C2O)C(C)(C)[C@@H]5CCC4[C@]1(C)[C@H]3O (stereo partly drawn)
- TGI (786-0 renal): 18.9 µM
- TGI (A498 renal): 18.2 µM
- TGI (A549 NSCLC): 21.4 µM
- TGI (ACHN renal): 17 µM
- TGI (BT-549 breast): 40.6 µM
- TGI (CAKI-1 renal): 20.4 µM
- TGI (CCRF-CEM leukemia): > 38.3 µM
- TGI (COLO 205 colon): 25.1 µM
- TGI (DU-145 prostate): 15.4 µM
- TGI (EKVX NSCLC): 18.8 µM
- TGI (HCC-2998 colon): 25.7 µM
- TGI (HCT-116 colon): 19.1 µM
- TGI (HCT-15 colon): 10.8 µM
- TGI (HL-60(TB) leukemia): 5.48 µM
- TGI (HOP-62 NSCLC): 37.7 µM
- TGI (HOP-92 NSCLC): 31.6 µM
- TGI (HS 578T breast): 45.6 µM
- TGI (HT29 colon): 24.7 µM
- TGI (IGROV1 ovarian): 29.1 µM
- TGI (K-562 leukemia): > 93.2 µM
- TGI (KM12 colon): 13.8 µM
- TGI (LOX IMVI melanoma): 31.4 µM
- TGI (M14 melanoma): 24.2 µM
- TGI (MALME-3M melanoma): 42.1 µM
- TGI (MCF7 breast): 11.9 µM
- TGI (MDA-MB-231 breast): 14.8 µM
- TGI (MDA-MB-435): 32.3 µM
- TGI (MOLT-4 leukemia): 21.5 µM
- TGI (NCI-H226 lung): 19.5 µM
- TGI (NCI-H23 lung): 15.7 µM
- TGI (NCI-H460 lung): 32.2 µM
- TGI (NCI-H522 lung): 25.3 µM
- TGI (NCI/ADR-RES ovarian): 27.8 µM
- TGI (OVCAR-3 ovarian): 13.4 µM
- TGI (OVCAR-4 ovarian): 23.8 µM
- TGI (OVCAR-5 ovarian): 31.8 µM
- TGI (OVCAR-8 ovarian): 64.8 µM
- TGI (PC-3 prostate): 17.1 µM
- TGI (RPMI-8226 leukemia): 29.1 µM
- TGI (RXF 393 renal): 30.3 µM
- TGI (SF-268 CNS): 41.3 µM
- TGI (SF-295 CNS): 24.7 µM
- TGI (SF-539 CNS): 12 µM
- TGI (SK-MEL-2 melanoma): 39 µM
- TGI (SK-MEL-28 melanoma): 29.8 µM
- TGI (SK-MEL-5 melanoma): 23.3 µM
- TGI (SK-OV-3 ovarian): 28.6 µM
- TGI (SN12C renal): 10.7 µM
- TGI (SNB-19 CNS): 18.6 µM
- TGI (SNB-75 CNS): 46.5 µM
- TGI (SR leukemia): 15.2 µM
- TGI (SW-620 colon): > 100 µM
- TGI (T-47D breast): 79.4 µM
- TGI (TK-10 renal): 24.5 µM
- TGI (U251 CNS): 22.1 µM
- TGI (UACC-257 melanoma): 32.9 µM
- TGI (UACC-62 melanoma): 27.7 µM
- TGI (UO-31 renal): 29.7 µM
